Assay results published in ChEMBL document CHEMBL3044932, “In vitro cytotoxicity evaluation of diversely substituted N-aryl-2-oxindoles” (2013).
≈ marks a conversion by molar mass, not a printed value.

What was measured:
Format in all cases: functional
[1] = test system: MOLT-4; experiment: Cytotoxicity against Homo sapiens (human) MOLT4 cells after 72 hr by MTT assay; conditions: MOLT-4, 72 h, read-out: ED50 (the source's name)
[2] = test system: B16-F10; experiment: Cytotoxicity against Homo sapiens (human) B16F10 cells after 72 hr by MTT assay; conditions: Mus musculus, B16-F10, 72 h; read-out: ED50 (the source's name)
[3] = test system: L132; experiment: Cytotoxicity against Homo sapiens (human) L-132 cells after 72 hr by MTT assay; conditions: L132, 72 h, read-out: ED50 (the source's name)
[4] = test system: HuTu80; experiment: Cytotoxicity against Homo sapiens (human) HuTu 80 cells after 72 hr by MTT assay; conditions: HuTu80, 72 h, read-out: ED50 (the source's name)
[5] = test system: KB; experiment: Cytotoxicity against Homo sapiens (human) KB cells after 72 hr by MTT assay; conditions: read-out: ED50 (the source's name)
[6] = test system: MIA PaCa-2; experiment: Cytotoxicity against Homo sapiens (human) MIAPaCa2 cells after 72 hr by MTT assay; conditions: MIA PaCa-2, 72 h, read-out: ED50 (the source's name)
[7] = test system: MCF7; experiment: Cytotoxicity against Homo sapiens (human) MCF7 cells after 72 hr by MTT assay; conditions: MCF7, 72 h, read-out: ED50 (the source's name)

SMILES	EC50 [1]	EC50 [2]	EC50 [3]	EC50 [4]	EC50 [5]	EC50 [6]	EC50 [7]
O=C1/C(=C\c2ccccc2)c2ccccc2N1c1c(Cl)cccc1Cl	7 µg/mL (≈ 19.1 µM)	9 µg/mL (≈ 24.6 µM)	> 100 µg/mL	8 µg/mL (≈ 21.8 µM)	10 µg/mL (≈ 27.3 µM)	> 100 µg/mL	10 µg/mL (≈ 27.3 µM)
O=C1/C(=C\c2ccccc2Cl)c2ccccc2N1c1c(Cl)cccc1Cl	7 µg/mL (≈ 17.5 µM)	39 µg/mL (≈ 97.3 µM)	> 100 µg/mL	> 100 µg/mL	5 µg/mL (≈ 12.5 µM)	> 100 µg/mL	9 µg/mL (≈ 22.5 µM)
O=C1/C(=C\c2ccccc2[N+](=O)[O-])c2ccccc2N1c1c(Cl)cccc1Cl	6 µg/mL (≈ 14.6 µM)	> 100 µg/mL	10 µg/mL (≈ 24.3 µM)	10 µg/mL (≈ 24.3 µM)	1 µg/mL (≈ 2.43 µM)	5 µg/mL (≈ 12.2 µM)	–
COc1ccc(/C=C2\C(=O)N(c3c(Cl)cccc3Cl)c3ccccc32)cc1OC	–	> 100 µg/mL	> 100 µg/mL	< 1 µg/mL	10 µg/mL (≈ 23.5 µM)	5 µg/mL (≈ 11.7 µM)	10 µg/mL (≈ 23.5 µM)
O=C1/C(=C\c2ccc(Cl)cc2)c2ccccc2N1c1c(Cl)cccc1Cl	–	> 100 µg/mL	9 µg/mL (≈ 22.5 µM)	6 µg/mL (≈ 15 µM)	2 µg/mL (≈ 4.99 µM)	5 µg/mL (≈ 12.5 µM)	5 µg/mL (≈ 12.5 µM)
COc1ccc(/C=C2\C(=O)N(c3c(Cl)cccc3Cl)c3ccccc32)cc1	–	> 100 µg/mL	> 100 µg/mL	> 100 µg/mL	> 100 µg/mL	> 100 µg/mL	> 100 µg/mL
CN(C)c1ccc(/C=C2\C(=O)N(c3c(Cl)cccc3Cl)c3ccccc32)cc1	–	> 100 µg/mL	> 100 µg/mL	< 1 µg/mL	15 µg/mL (≈ 36.6 µM)	> 100 µg/mL	> 100 µg/mL
O=C1/C(=C\c2cccc(Cl)c2)c2ccccc2N1c1c(Cl)cccc1Cl	6 µg/mL (≈ 15 µM)	8 µg/mL (≈ 20 µM)	16 µg/mL (≈ 39.9 µM)	7 µg/mL (≈ 17.5 µM)	2 µg/mL (≈ 4.99 µM)	5 µg/mL (≈ 12.5 µM)	–
O=C1/C(=C\c2cccc(Br)c2)c2ccccc2N1c1c(Cl)cccc1Cl	7 µg/mL (≈ 15.7 µM)	8 µg/mL (≈ 18 µM)	19 µg/mL (≈ 42.7 µM)	7 µg/mL (≈ 15.7 µM)	2 µg/mL (≈ 4.49 µM)	5 µg/mL (≈ 11.2 µM)	5 µg/mL (≈ 11.2 µM)
O=C1/C(=C\c2cccc(Oc3ccccc3)c2)c2ccccc2N1c1c(Cl)cccc1Cl	6 µg/mL (≈ 13.1 µM)	> 100 µg/mL	24 µg/mL (≈ 52.4 µM)	10 µg/mL (≈ 21.8 µM)	5 µg/mL (≈ 10.9 µM)	> 100 µg/mL	100 µg/mL (≈ 218 µM)
O=C1/C(=C\c2c(Cl)cccc2Cl)c2ccccc2N1c1c(Cl)cccc1Cl	–	> 100 µg/mL	> 100 µg/mL	100 µg/mL (≈ 230 µM)	50 µg/mL (≈ 115 µM)	> 100 µg/mL	> 100 µg/mL
O=C1/C(=C\c2cc3ccccc3nc2Cl)c2ccccc2N1c1c(Cl)cccc1Cl	–	–	–	–	10 µg/mL (≈ 22.1 µM)	5 µg/mL (≈ 11.1 µM)	> 100 µg/mL
Cc1ccc2nc(Cl)c(/C=C3\C(=O)N(c4c(Cl)cccc4Cl)c4ccccc43)cc2c1	–	–	–	–	100 µg/mL (≈ 215 µM)	–	> 100 µg/mL
Cc1ccc2nc(Cl)c(/C=C3\C(=O)N(c4c(Cl)cccc4Cl)c4ccccc43)cc2c1C	–	> 100 µg/mL	98 µg/mL (≈ 204 µM)	< 1 µg/mL	10 µg/mL (≈ 20.8 µM)	–	> 100 µg/mL
O=C1/C(=C\c2ccco2)c2ccccc2N1c1c(Cl)cccc1Cl	–	> 100 µg/mL	> 100 µg/mL	18 µg/mL (≈ 50.5 µM)	5 µg/mL (≈ 14 µM)	10 µg/mL (≈ 28.1 µM)	> 100 µg/mL
O=C1/C(=C\c2ccc(O)cc2)c2ccccc2N1c1c(Cl)cccc1Cl	–	33 µg/mL (≈ 86.3 µM)	30 µg/mL (≈ 78.5 µM)	25 µg/mL (≈ 65.4 µM)	2 µg/mL (≈ 5.23 µM)	2 µg/mL (≈ 5.23 µM)	20 µg/mL (≈ 52.3 µM)
O=C1/C(=C\c2ccc(F)cc2)c2ccccc2N1c1c(Cl)cccc1Cl	–	38 µg/mL (≈ 98.9 µM)	13 µg/mL (≈ 33.8 µM)	8 µg/mL (≈ 20.8 µM)	5 µg/mL (≈ 13 µM)	5 µg/mL (≈ 13 µM)	9 µg/mL (≈ 23.4 µM)
O=C1/C(=C\c2cccc3ccccc23)c2ccccc2N1c1c(Cl)cccc1Cl	–	> 100 µg/mL	> 100 µg/mL	10 µg/mL (≈ 24 µM)	> 100 µg/mL	> 100 µg/mL	> 100 µg/mL
O=C1Cc2ccccc2N1c1c(Cl)cccc1Cl	–	> 100 µg/mL	> 100 µg/mL	> 100 µg/mL	100 µg/mL (≈ 360 µM)	> 100 µg/mL	> 100 µg/mL
